Consider one molecule from publication PMC6272715, “Discovery of Novel Small Molecule Anti-HCV Agents via the CypA Inhibitory Mechanism Using O-Acylation-Directed Lead Optimization” (Molecules, 2015).

As usually defined, the AUC(0-inf) is the area under the concentration-time curve extrapolated to infinity. A higher AUC(0-inf) goes with more exposure. A word on the Cmax: it is the maximum level reached in the sampled fluid or tissue. Broadly, the MRT is the average time that molecules of a dose stay in the body. Broadly, the half-life is how long it takes for the measured level to halve. Read a low half-life as rapid decline. What is called EC50 is the concentration that produces a half-maximal response. One may read the IC50 as the point on the concentration scale where inhibition reaches its midpoint. Usually CC50 stands for the concentration at which the toxic effect on the cells reaches its halfway point.

Read-outs that look alike come from different tables or passages of the source.

Data set [1] can be described thus: in vivo. The note with it: male, SD, rat, iv, i.v. 2 mg 25/kg; for AUC(0-inf): AUC0-∞.
Data set [2] concerns HCV JFH1-2a replicon. The experiment in a line: HCV JFH1-2a subgenomic replicon assay (Renilla luciferase, Huh 7.5.1 replicon cells). In kind it is cell-based. The note with it: Hepatitis C virus. A general note: A replicon is a self-replicating genome or part of one, used to study replication in cells.
Data set [3] has as its system B spleen cells. In words: Spleen cells proliferation inhibition assay (MTT), B spleen cells. Type of data set: cell-based, mouse (ICR). The note with it: mouse spleen cells, 72 h, read-out: B Spleen Cells IC50 ± SD.
Method: Preparation of Splenocyte Suspension: The spleen was aseptically taken from female ICR mice strains (6–8 weeks-old, 20 ± 2 g), crushed gently and separated into single cells by squeezing in 20 mL RPMI 1640 medium (Invitrogen, shanghai, China). The cells obtained were passed through 70 μM nylon cell strainer and centrifuged at 1000 rpm∙min^−1 for 5 min at RT. Pellets were added into 10 mL erythrocytes lysis buffer (150 mM NH4Cl, 10 mM KHCO3 and 0.1 mM EDTA) followed by centrifugation to remove erythrocytes. After washing twice with complete medium (RPMI 1640 containing 100 U∙mL^−1 of penicillin, 100 U∙mL^−1 of streptomycin and 10% FBS), they were re-suspended in the complete medium and used for cell culture.
Data set [4] deals with HCV Con1-1b replicon. The experiment in a line: HCV Con1-1b subgenomic replicon assay. Type of data set: cell-based. The following applies: Hepatitis C virus; Table 4; read-out: Anti-HCV Activity EC50 ± SD Replicon Assay Con1-1b.
For data set [5], the system named is JFH1-2a (S282T) virus. In words: HCV virus assay, mutant JFH1-2a (S282T) virus strain. In kind it is cell-based. The following applies: Hepatitis C virus, read-out: Anti-HCV Activity (Virus Assay) EC50 ± SD JFH1-2a (S282T).
Data set [6] is described as follows: Cell proliferation (cytotoxicity) assay, WST-1. In kind it is cell-based. The note with it: human, Huh 7.5.1 cells. As for the experimental part: Cell Proliferation Assay: Huh 7.5.1 cells were seeded at a density of 2 × 10^4 cells per well in 96-well plates overnight. The cells were respectively incubated with serial diluted compounds for 48 h, and the viability of Huh7.5.1 cells was determined in 96-well tissue culture plates using cell proliferation reagent WST-1 (Roche, Basel, Switzerland). The absorbance (OD450 /reference OD630) was measured to detect the cytotoxicity of compounds, according to the manufacturer’s protocol of Cell Proliferation Reagent WST-1.
A general note: Formazan colour is commonly taken as a measure of viable cells.

In data set [7] the test system is T spleen cells. In words: Spleen cells proliferation inhibition assay (MTT), T spleen cells. Type of data set: cell-based, mouse (ICR). The note with it: mouse spleen cells, 72 h, read-out: T Spleen Cells IC50 ± SD. As for the experimental part:
Preparation of Splenocyte Suspension: The spleen was aseptically taken from female ICR mice strains (6–8 weeks-old, 20 ± 2 g), crushed gently and separated into single cells by squeezing in 20 mL RPMI 1640 medium (Invitrogen, shanghai, China). The cells obtained were passed through […] nylon cell strainer and centrifuged at 1000 rpm∙min^−1 for 5 min at RT. Pellets were added into 10 mL erythrocytes lysis buffer (150 mM NH4Cl, 10 mM KHCO3 and 0.1 mM EDTA) followed by centrifugation to remove erythrocytes. After washing twice with complete medium (RPMI 1640 containing 100 U∙mL^−1 of penicillin, 100 U∙mL^−1 of streptomycin and 10% FBS), they were re-suspended in the complete medium and used for cell culture.
After 72 h of incubation, the cell growth was evaluated with MTT assay. The assay plates were added 10 μL of 5 mg∙mL^−1 MTT per well and incubated for 4 h. The formazan generated was solubilized with 100 μL of solution (10% SDS, 5% isobutyl alcohol, and 10 mM HCl) after incubated at 37 °C overnight. The absorption at 580 nm relative to 680 nm was measured by SpectraMax Plus 384 Reader (Molecular Devices, Shanghai, China).

The test system of data set [8] is JFH1-2a virus (wild type). In words: HCV virus assay, JFH1-2a wild type, Huh 7.5.1 cells. The note with it: Hepatitis C virus.
For data set [9], the system named is HCV H77-1a replicon. The experiment in a line: HCV H77-1a subgenomic replicon assay. In kind it is cell-based. The following applies: Hepatitis C virus; Table 4; read-out: Anti-HCV Activity EC50 ± SD Replicon Assay H77-1a.
For data set [10] the following is noted: rats, intravenous injection of 25 (2 mg∙kg^−1).
Where [11] appears, read: SD rats, Mean ± SD (Rat 1 and 3).

With `O=C(NC(=O)c1c(O)cccc1O)NC1c2ccccc2-c2ccccc21` [Compound 1], the AUC(0-inf) in data set [1] (SD rat, Rat 1) turned out to be 335 ng·h/mL; in data set [1] (SD rat, Rat 3) it was 324 ng·h/mL; in data set [1] (setting [11]) it was 329 ± 8.08 ng·h/mL. The Cmax in [1] (SD rat, Rat 1) was 698 ng/mL; in data set [1] (SD rat, Rat 3), 1110 ng/mL; in data set [1] (setting [11]), 904 ± 292 ng/mL. The MRT came out at 0.94 h in [1] (SD rat, Rat 1); 0.55 h in data set [1] (SD rat, Rat 3); 0.75 ± 0.28 h in [1] (setting [11]). Also, the half-life in [1] (t1/2, SD rat, Rat 1) is 1.84 h; in data set [1] (t1/2, SD rat, Rat 3), 1.21 h; in [1] (t1/2, SD rats, Mean ± SD (Rat 1 and 3)), 1.53 ± 0.45 h. The EC50 in [2] (Table 1, mean ± SD of three independent experiments, read-out: Anti-HCV JFH1-2a Replicon Assay EC50 ± SD) worked out at 920 ± 120 nM; in [2] (Table 4, read-out: Anti-HCV Activity EC50 ± SD Replicon Assay JFH1-2a), 920 ± 120 nM; in data set [4], 780 ± 190 nM; in [5], 560 ± 130 nM; in data set [8] (Huh-7.5.1, read-out: Anti-HCV Activity (Virus Assay) EC50 ± SD JFH1-2a (Wild Type)), 520 ± 160 nM; in [8] (Huh-7.5.1, read-out: Anti-HCV Activity EC50 ± SD Virus Assay JFH1-2a), 670 ± 230 nM. Further, in data set [9], the EC50 is 1110 ± 330 nM. For the same molecule, the IC50 came out at 51900 ± 8680 nM in data set [3] and 33000 ± 5720 nM in data set [7]. In addition, the CC50 at 48 h in data set [6] (Table 4, 48 h) was over 16000 nM; in data set [6] (Table 5) it was over 20000 nM. Also, in data set [10], the “plasma concentration after 5 min (mean ± SD)” value stood at 904.5 ± 291.9 ng/mL.
